Tests used:
[1] = system: WSSV; assay: In vivo anti-viral bioassay: survival of freshwater crabs after WSSV challenge; on Animal survival/mortality: key: 0: Represents live animal; 1: Represents Animal Mortality; set-up: species or system P. hydrodromous
Protocol: Positive Control: The term is used herein in reference to disease positive control where only WSSV virus is injected without any antagonist. This positive for the disease expression.
The experimental groups have been divided in seven groups, Group-I-VII as described below:
(§1) Freshwater crabs P. hydrodromous were collected from Padavedu (12.6310070 79.052885°) Vellore, India.
(§2) The animals with a body weight of 20-25 g were transported to the laboratory and maintained at room temperature (25° C.). The crabs were fed twice a day with boiled egg whites. The crabs were kept in the described condition for one week before the experiment.
As described in earlier reports (Natarajan et al., 2017), haemolymph was drawn from WSSV infected shrimp using a 26-gauge syringe through heart puncture. The haemolymph was centrifuged at 3000 rpm for 20 minutes at 4° C. The supernatant was collected and it was centrifuged for 30 minutes at 4° C. and then it was filtered using 0.45p m and stored at −20° C. for further studies. The haemolymph were analyzed via PCR to confirm the presence of WSSV. To amplify the structural VP28 gene, a conventional PCR reaction was set up, which includes […], 5 pmol WSSV-VP28 primer (Table 1), 3 μl PCR-grade water, and 1 μl template DNA (Sundaram et al., 2016; Yoganandhan et al., 2003). The viral titer quantified through real time PCR, was 1.6×10^6 copies μL−1 which served as the stock for this study.
(§3) The anti-viral efficacy of GMVL and saponin-rich extract against WSSV was assessed in the freshwater crab, previously acclimated to laboratory conditions. The crabs were divided into different experimental groups containing 4 crabs per group and the experiment was performed in duplicates. The viral inoculum mixture was injected into the respective group after 3 h of pre-incubation. All the crabs were injected intramuscularly at the second abdominal segment. Briefly, healthy crabs received the injection as given above. The crabs were fed twice a day and observed regularly for gross signs of disease. The experiment was carried out up to several days depending on the survival after challenging with WSSV with/without above mentioned antagonist and mortality was recorded to plot a cumulative mortality graph.

[2] = Safety of test sample in non-infected freshwater crabs (Placebo group); further: key: 0: Represents live animal; 1: Represents Animal Mortality; type: in vivo, P. hydrodromous; conditions: GML 5 mg/animal
Protocol: Placebo: The term is used herein in reference to disease negative wherein the highest dose of test molecule has been injected, and evidences for safety of test molecules.
as §1, §2, §3

[3] = system: white spot syndrome virus (WSSV); conditions: dietary supplementation; Qian et al. 2021, Gong et al. 2022; cited from earlier work
[4] = preincubated with WSSV, co-injected (i.m)

In the case of `CCCCCCCCCCCC(=O)OCC(O)CO` (stereo not drawn) [GML, Glycerol monolaurate], the animal survival time ([1]; 3 mg/animal, preincubated with WSSV, co-injected (i.m)) is reported as > 140 h, the “time within which all animals in the test groups died post challenging” value ([1]; 1 and 3 mg/animal, preincubated with WSSV, co-injected (i.m)) is reported as ≤ 150 h and the Animal survival/mortality ([1]; GML 1 mg/animal, 0 h) is reported as 0. It also gave an Animal survival/mortality ([1]; GML 1 mg/animal, 6 h) of 0, an Animal survival/mortality ([1]; GML 1 mg/animal, 12 h) of 0 and an Animal survival/mortality ([1]; GML 1 mg/animal, 24 h) of 1. For the same compound, the Animal survival/mortality ([1]; GML 1 mg/animal, 48 h) was 0, the Animal survival/mortality ([1]; GML 1 mg/animal, 72 h) was 1 and the Animal survival/mortality ([1]; GML 1 mg/animal, 96 h) was 1. For the same compound, the Animal survival/mortality ([1]; GML 1 mg/animal, 120 h) was 1, the Animal survival/mortality ([1]; GML 3 mg/animal, 0 h) was 0 and the Animal survival/mortality ([1]; GML 3 mg/animal, 6 h) was 0. The Animal survival/mortality ([1]; GML 3 mg/animal, 12 h) was 0, the Animal survival/mortality ([1]; GML 3 mg/animal, 24 h) was 1 and the Animal survival/mortality ([1]; GML 3 mg/animal, 48 h) was 0. The Animal survival/mortality ([1]; GML 3 mg/animal, 72 h) was 1, the Animal survival/mortality ([1]; GML 3 mg/animal, 96 h) was 1 and the Animal survival/mortality ([1]; GML 3 mg/animal, 120 h) was 1. For the same compound, the Animal survival/mortality ([1]; GML 3 mg/animal, 144 h) was 1, the “mortality (in words)” value ([1]; alone or in combination) was “the mortality is significant” and the “inhibition of the virus” value [1, 4] was “partial inhibition of the virus”. The “protection of the animal from lethality” value [1, 4] was “could not protect the animal from lethality”, the “Animal survival/mortality (Placebo)” value ([2]; 0 h) was 0 and the “Animal survival/mortality (Placebo)” value ([2]; 6 h) was 0. The “Animal survival/mortality (Placebo)” value ([2]; 12 h) was 0, the “Animal survival/mortality (Placebo)” value ([2]; 24 h) was 0 and the “Animal survival/mortality (Placebo)” value ([2]; 48 h) was 0. For the same compound, the “Animal survival/mortality (Placebo)” value ([2]; 72 h) was 0, the “Animal survival/mortality (Placebo)” value ([2]; 96 h) was 0 and the “Animal survival/mortality (Placebo)” value ([2]; 120 h) was 0. For the same compound, the “Animal survival/mortality (Placebo)” value ([2]; 144 h) was 0, the WSSV copy number [3] was “reduced the WSSV copy number” and the “mortality of WSSV-infected crayfish” value [3] was “reduce the mortality”.

Source: patent US20260315562A1, “NOVEL FEED-ADDITIVE COMPOSITION” (KYNTOX BIOTECH INDIA PRIVATE LIMITED, priority 2023, published 2026)
